The assay concerns the target Substance-P receptor (Homo sapiens, UniProt P25103). The experiment in a line: Receptor Binding Assay: The buffer solution for the receptor binding test was dispensed to the wells of a 96-well assay plate (Greiner) at 22.5 μL/well. DMSO solutions of a test compound, which were prepared at an 80-time higher concentration using 100% dimethyl sulfoxide (DMSO), were added to the wells at 2.5 μL/well (final concentrations of 1 nM to 100 nM), and the solutions were mixed. As a radiolabeled ligand, 125I-substance P (Substance P, [125I]Tyr8-, PerkinElmer) was used. 125I-substance P was diluted with the buffer solution for the receptor binding test to a concentration resulting in 125 pmol/25 μL/well and added to the 96-well assay plate, and the solutions were mixed. The membrane fraction prepared from the human NK1 receptor-expressing cells was diluted with the buffer solution for the receptor binding test to a concentration resulting in 8 to 10 μg/well, suspended until the suspension became in such a homogenous state that the suspension could flow through a 27 G injection needle smoothly and then added to the 96-well assay plate at 150 μL/well. Then, the plate was incubated at room temperature for 60 minutes while shaking the plate. […].

Chain of Substance-P receptor (P25103 whole entry): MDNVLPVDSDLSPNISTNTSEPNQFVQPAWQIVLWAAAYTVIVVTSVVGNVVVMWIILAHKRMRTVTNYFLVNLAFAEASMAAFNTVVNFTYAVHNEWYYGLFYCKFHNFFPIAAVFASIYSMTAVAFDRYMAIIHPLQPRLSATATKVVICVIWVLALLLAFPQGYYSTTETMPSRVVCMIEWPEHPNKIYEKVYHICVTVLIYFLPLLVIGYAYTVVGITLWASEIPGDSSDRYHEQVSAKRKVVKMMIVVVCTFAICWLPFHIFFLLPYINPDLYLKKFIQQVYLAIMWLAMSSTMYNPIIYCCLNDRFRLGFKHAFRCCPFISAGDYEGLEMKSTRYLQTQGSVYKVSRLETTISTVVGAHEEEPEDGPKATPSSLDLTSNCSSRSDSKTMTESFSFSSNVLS

`Cc1cc(F)ccc1-c1cc(C2CCC(CC(=O)O)CC2)nc(Cl)c1N(C)C(=O)C(C)(C)c1cc(C(F)(F)F)cc(C(F)(F)F)c1` (stereo unspecified) yielded an IC50 of 5.51 nM.

For the origin of these results see ChEMBL document CHEMBL5725497, “Cyclohexyl pyridine derivative” (2017).
